Legend:
[1] = Intrinsic clearance in mouse liver microsomes; format: in vitro ADME
[2] = Plasma protein binding, mouse; format: in vitro ADME
[3] = Plasma protein binding, rat; format: in vitro ADME
[4] = Plasma protein binding, dog; format: in vitro ADME
[5] = Plasma protein binding, human; format: in vitro ADME
[6] = Rat pharmacokinetics (iv and po); format: in vivo; conditions: po 25 mg/kg, male Sprague–Dawley rats
[7] = Dog pharmacokinetics (iv and po); format: in vivo; conditions: po 5 mg/kg, male beagle dogs
EZH2 C663S = target: T1, EZH2 C663S (Homo sapiens, UniProt O75530+Q15910, C663S); experiment: EZH2 C663S incorporated into reconstituted PRC2, potency; format: biochemical; conditions: single substitution cysteine to serine at position 663, reconstituted PRC2
T1 construct: made in house

[8] = tested on: cytochrome P450 enzymes 1A2, 2C9, 2C8, 2D6, and 3A4; experiment: Time-dependent inhibition (TDI) of cytochrome P450 enzymes; format: in vitro ADME
[9] = tested on: panel of fifty-four physiologically relevant receptors, transporters, and ion channels; experiment: Secondary pharmacology panel; conditions: at 10 μM; fifty-four targets
DNMT1 = DNMT1 (Homo sapiens, UniProt P26358); experiment: Methyltransferase selectivity panel: DNMT1; format: biochemical; conditions: substrate Poly dl-dC; top concentration 10 µM
DNMT3a = DNMT3a (Homo sapiens, UniProt Q9Y6K1); experiment: Methyltransferase selectivity panel: DNMT3a; format: biochemical; conditions: substrate Lambda DNA; top concentration 10 µM
Sequence of DNMT3a (Q9Y6K1 whole entry, looked up, species assumed): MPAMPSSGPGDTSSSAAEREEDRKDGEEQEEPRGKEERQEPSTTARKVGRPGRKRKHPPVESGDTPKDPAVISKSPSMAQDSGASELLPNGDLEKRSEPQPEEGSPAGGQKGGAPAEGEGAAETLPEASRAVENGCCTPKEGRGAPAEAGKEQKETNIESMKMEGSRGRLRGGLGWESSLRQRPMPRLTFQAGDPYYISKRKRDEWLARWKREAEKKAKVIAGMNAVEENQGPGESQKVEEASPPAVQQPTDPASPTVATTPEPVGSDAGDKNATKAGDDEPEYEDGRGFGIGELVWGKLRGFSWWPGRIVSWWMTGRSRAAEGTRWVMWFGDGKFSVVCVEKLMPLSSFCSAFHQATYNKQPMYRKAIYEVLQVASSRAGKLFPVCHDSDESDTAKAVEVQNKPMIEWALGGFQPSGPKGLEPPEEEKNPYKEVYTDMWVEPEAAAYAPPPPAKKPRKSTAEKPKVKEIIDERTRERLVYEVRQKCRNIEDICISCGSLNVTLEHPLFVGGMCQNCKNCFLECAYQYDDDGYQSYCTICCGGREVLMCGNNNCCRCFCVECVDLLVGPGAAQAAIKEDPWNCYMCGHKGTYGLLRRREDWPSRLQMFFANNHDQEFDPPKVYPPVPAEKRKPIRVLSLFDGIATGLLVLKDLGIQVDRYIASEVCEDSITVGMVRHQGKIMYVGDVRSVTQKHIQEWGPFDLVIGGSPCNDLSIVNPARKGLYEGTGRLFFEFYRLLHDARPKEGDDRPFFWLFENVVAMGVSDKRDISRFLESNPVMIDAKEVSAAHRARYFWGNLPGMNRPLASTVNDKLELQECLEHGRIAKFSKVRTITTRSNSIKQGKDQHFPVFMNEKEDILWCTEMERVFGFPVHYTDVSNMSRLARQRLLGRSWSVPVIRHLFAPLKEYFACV

DNMT3b = DNMT3b (Homo sapiens, UniProt Q9UBC3); experiment: Methyltransferase selectivity panel: DNMT3b; format: biochemical; conditions: substrate Lambda DNA; top concentration 10 µM
DOT1L = DOT1L (Homo sapiens, UniProt Q8TEK3); experiment: Methyltransferase selectivity panel: DOT1L; format: biochemical; conditions: substrate Nucleosomes; top concentration 10 µM
G9a = G9a (Homo sapiens, UniProt Q96KQ7); experiment: Methyltransferase selectivity panel: G9a; format: biochemical; conditions: substrate Histone H3 (1-21); top concentration 10 µM
GLP = GLP (Homo sapiens, UniProt Q9H9B1); experiment: Methyltransferase selectivity panel: GLP; format: biochemical; conditions: substrate Histone H3 (1-21); top concentration 10 µM
Sequence of GLP (Q9H9B1 whole entry): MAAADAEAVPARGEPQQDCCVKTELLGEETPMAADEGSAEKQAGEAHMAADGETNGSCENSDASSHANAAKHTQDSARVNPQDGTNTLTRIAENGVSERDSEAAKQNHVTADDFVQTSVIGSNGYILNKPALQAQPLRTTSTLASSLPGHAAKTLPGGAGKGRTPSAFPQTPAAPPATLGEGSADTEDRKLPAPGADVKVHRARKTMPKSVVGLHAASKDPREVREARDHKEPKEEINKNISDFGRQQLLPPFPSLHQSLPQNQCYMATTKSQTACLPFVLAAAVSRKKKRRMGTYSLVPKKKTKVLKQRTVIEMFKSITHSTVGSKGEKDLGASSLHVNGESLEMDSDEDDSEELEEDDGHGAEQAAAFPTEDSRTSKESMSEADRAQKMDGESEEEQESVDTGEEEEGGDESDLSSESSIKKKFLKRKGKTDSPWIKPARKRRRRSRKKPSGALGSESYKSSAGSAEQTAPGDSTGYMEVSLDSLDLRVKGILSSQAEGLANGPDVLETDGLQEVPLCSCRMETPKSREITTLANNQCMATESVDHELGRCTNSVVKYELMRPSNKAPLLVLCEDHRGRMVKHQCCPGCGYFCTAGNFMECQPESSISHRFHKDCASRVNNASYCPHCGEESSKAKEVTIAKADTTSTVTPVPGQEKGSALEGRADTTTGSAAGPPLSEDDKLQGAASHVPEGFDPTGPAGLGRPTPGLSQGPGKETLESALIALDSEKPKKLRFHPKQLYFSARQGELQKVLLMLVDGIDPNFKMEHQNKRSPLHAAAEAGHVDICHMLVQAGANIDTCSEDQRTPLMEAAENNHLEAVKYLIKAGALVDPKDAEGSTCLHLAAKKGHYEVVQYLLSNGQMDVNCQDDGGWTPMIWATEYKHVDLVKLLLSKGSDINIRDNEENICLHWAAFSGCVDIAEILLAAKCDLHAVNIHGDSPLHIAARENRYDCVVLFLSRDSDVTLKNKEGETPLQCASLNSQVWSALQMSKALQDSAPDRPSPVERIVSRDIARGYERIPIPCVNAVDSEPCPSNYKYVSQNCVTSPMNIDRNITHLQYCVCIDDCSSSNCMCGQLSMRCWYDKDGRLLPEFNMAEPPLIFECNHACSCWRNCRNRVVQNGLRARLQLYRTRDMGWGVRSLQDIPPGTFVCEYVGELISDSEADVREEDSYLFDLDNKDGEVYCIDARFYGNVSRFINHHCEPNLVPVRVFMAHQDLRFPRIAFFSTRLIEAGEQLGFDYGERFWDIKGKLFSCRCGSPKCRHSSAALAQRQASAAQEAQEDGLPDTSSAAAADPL

MLL1 = MLL1 (Homo sapiens, UniProt Q03164); experiment: Methyltransferase selectivity panel: MLL1; format: biochemical; conditions: substrate Nucleosomes; top concentration 10 µM
MLL2 = MLL2 (Homo sapiens, UniProt O14686); experiment: Methyltransferase selectivity panel: MLL2; format: biochemical; conditions: substrate Core Histone; top concentration 10 µM
MLL3 = MLL3 (Homo sapiens, UniProt Q8NEZ4); experiment: Methyltransferase selectivity panel: MLL3; format: biochemical; conditions: substrate Core Histone; top concentration 10 µM
MLL4 = experiment: Methyltransferase selectivity panel: MLL4; format: biochemical; conditions: substrate Core Histone; top concentration 10 µM
NSD1 = NSD1 (Homo sapiens, UniProt Q96L73); experiment: Methyltransferase selectivity panel: NSD1; format: biochemical; conditions: substrate Nucleosomes; top concentration 10 µM
NSD2 = NSD2 (Homo sapiens, UniProt O96028); experiment: Methyltransferase selectivity panel: NSD2; format: biochemical; conditions: substrate Nucleosomes; top concentration 10 µM
Sequence of NSD2 (O96028 whole entry): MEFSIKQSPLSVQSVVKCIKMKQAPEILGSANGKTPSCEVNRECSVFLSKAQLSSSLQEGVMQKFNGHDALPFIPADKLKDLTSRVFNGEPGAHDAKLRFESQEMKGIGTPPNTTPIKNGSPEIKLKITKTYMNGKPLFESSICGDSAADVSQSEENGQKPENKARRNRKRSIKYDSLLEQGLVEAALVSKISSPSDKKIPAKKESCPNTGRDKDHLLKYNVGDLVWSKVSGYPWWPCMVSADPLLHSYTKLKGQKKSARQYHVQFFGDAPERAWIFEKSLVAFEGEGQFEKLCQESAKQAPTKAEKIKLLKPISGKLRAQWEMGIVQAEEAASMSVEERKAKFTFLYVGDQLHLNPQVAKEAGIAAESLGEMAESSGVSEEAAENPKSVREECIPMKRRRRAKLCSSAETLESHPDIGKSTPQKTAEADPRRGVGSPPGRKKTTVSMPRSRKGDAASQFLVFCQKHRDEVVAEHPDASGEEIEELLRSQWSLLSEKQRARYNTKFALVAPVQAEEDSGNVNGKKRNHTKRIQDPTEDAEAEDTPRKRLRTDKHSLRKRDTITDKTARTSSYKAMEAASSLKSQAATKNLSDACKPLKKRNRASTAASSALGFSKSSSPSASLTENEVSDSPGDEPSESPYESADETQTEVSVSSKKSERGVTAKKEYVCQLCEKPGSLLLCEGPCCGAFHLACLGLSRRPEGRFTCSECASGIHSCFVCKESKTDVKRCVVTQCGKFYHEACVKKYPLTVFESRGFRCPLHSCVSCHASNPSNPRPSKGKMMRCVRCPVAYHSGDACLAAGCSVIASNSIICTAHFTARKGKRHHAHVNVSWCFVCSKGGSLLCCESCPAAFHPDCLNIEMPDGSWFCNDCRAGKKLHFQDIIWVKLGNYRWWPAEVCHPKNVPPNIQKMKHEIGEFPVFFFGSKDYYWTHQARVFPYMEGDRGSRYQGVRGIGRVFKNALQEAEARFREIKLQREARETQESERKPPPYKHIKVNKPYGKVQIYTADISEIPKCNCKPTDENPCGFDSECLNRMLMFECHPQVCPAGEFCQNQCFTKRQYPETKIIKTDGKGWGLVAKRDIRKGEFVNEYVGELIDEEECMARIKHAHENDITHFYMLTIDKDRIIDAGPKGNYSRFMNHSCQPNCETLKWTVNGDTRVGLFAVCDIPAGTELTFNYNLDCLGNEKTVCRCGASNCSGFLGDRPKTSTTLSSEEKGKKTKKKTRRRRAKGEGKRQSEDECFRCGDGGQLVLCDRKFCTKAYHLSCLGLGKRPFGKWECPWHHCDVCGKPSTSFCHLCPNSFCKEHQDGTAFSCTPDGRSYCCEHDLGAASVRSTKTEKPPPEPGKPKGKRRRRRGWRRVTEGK

NSD2 (E1099K) = NSD2 (E1099K) (Homo sapiens, UniProt O96028, E1099K); experiment: Methyltransferase selectivity panel: NSD2 (E1099K); format: biochemical; conditions: substrate Nucleosomes; top concentration 10 µM
Sequence of NSD2 (E1099K) (O96028 whole entry E1099K): as the sequence (O96028 whole entry) above, with E1099K counted along it

PRDM9 = PRDM9 (Homo sapiens, UniProt Q9NQV7); experiment: Methyltransferase selectivity panel: PRDM9; format: biochemical; conditions: substrate Histone H3; top concentration 10 µM
Sequence of PRDM9 (Q9NQV7 whole entry): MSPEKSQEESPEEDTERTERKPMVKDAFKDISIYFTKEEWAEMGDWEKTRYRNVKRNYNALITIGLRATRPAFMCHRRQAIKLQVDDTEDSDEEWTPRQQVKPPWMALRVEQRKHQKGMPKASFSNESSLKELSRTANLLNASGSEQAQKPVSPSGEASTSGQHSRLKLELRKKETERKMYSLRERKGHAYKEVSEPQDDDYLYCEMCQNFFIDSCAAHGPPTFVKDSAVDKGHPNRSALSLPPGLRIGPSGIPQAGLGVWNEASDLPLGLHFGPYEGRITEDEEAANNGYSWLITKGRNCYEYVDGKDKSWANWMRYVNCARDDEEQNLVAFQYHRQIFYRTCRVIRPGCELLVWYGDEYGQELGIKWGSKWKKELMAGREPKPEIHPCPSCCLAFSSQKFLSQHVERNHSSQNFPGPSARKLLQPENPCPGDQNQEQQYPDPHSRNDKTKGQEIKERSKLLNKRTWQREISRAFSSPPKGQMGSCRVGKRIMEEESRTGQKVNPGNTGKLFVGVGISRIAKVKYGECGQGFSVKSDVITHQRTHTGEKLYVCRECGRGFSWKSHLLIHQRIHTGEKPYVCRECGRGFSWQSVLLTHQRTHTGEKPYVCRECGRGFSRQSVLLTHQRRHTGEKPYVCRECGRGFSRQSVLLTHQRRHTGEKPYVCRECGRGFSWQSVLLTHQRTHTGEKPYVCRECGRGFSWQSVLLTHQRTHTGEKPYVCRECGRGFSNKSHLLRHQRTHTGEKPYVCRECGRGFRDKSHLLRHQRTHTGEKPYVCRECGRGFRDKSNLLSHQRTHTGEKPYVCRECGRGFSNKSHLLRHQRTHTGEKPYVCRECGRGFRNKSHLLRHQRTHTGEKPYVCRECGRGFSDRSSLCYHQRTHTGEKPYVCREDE

PRMT1 = PRMT1 (Homo sapiens, UniProt Q99873); experiment: Methyltransferase selectivity panel: PRMT1; format: biochemical; conditions: substrate Histone H4; top concentration 10 µM
PRMT3 = PRMT3 (Homo sapiens, UniProt O60678); experiment: Methyltransferase selectivity panel: PRMT3; format: biochemical; conditions: substrate Histone H4; top concentration 10 µM
Sequence of PRMT3 (O60678 whole entry): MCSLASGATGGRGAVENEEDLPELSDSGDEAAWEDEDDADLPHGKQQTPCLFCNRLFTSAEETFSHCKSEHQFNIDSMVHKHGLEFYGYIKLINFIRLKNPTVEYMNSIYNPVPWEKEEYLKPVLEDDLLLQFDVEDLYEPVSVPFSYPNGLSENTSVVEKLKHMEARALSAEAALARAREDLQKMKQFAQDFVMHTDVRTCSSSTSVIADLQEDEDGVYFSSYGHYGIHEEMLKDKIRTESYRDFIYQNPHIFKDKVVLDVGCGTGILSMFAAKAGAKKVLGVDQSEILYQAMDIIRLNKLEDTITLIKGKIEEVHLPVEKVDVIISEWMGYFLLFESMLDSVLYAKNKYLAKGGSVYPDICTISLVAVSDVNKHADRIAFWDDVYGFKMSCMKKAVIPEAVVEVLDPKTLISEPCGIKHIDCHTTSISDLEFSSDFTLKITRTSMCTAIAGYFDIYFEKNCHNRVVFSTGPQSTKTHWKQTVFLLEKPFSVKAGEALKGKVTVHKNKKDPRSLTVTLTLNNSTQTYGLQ

PRMT4 = PRMT4 (Homo sapiens, UniProt Q86X55); experiment: Methyltransferase selectivity panel: PRMT4; format: biochemical; conditions: substrate Histone H3; top concentration 10 µM
PRMT5 = PRMT5 (Homo sapiens, UniProt O14744); experiment: Methyltransferase selectivity panel: PRMT5; format: biochemical; conditions: substrate Histone 2A; top concentration 10 µM
PRMT8 = PRMT8 (Homo sapiens, UniProt Q9NR22); experiment: Methyltransferase selectivity panel: PRMT8; format: biochemical; conditions: substrate Histone H4; top concentration 10 µM
SET1B = SET1B (Homo sapiens, UniProt Q9UPS6); experiment: Methyltransferase selectivity panel: SET1B; format: biochemical; conditions: substrate Core Histone; top concentration 10 µM
SET8 = SET8 (Homo sapiens, UniProt Q9NQR1); experiment: Methyltransferase selectivity panel: SET8; format: biochemical; conditions: substrate Nucleosomes; top concentration 10 µM
SETD2 = SETD2 (Homo sapiens, UniProt Q9BYW2); experiment: Methyltransferase selectivity panel: SETD2; format: biochemical; conditions: substrate Histone H4; top concentration 10 µM
SMYD2 = SMYD2 (Homo sapiens, UniProt Q9NRG4); experiment: Methyltransferase selectivity panel: SMYD2; format: biochemical; conditions: substrate Histone H4; top concentration 10 µM
SUV39H1 = SUV39H1 (Homo sapiens, UniProt O43463); experiment: Methyltransferase selectivity panel: SUV39H1; format: biochemical; conditions: substrate Histone H3; top concentration 10 µM
SUV39H2 = SUV39H2 (Homo sapiens, UniProt Q9H5I1); experiment: Methyltransferase selectivity panel: SUV39H2; format: biochemical; conditions: substrate Histone H3; top concentration 10 µM
SUV420H1TV2 = SUV420H1TV2 (Homo sapiens, UniProt Q4FZB7); experiment: Methyltransferase selectivity panel: SUV420H1TV2; format: biochemical; conditions: substrate Nucleosomes; top concentration 10 µM
PRMT6 = PRMT6 (Homo sapiens, UniProt Q96LA8); conditions: substrate Histone H3; top concentration 10 µM
[10] = tested on: KARPAS-422 B-cell lymphoma xenograft; experiment: KARPAS-422 B-cell lymphoma xenograft efficacy and PK/PD in CB-17 SCID mice; conditions: for antitumor efficacy (in words): 160 mg/kg BID

COc1cc(C)[nH]c(=O)c1CNC(=O)c1c(C)n([C@H](C)C2CCN(CC(F)(F)F)CC2)c2ccccc12 [compound 13, (R)-N-((4-Methoxy-6-methyl-2-oxo-1,2-dihydropyridin-3-yl)methyl)-2-methyl-1-(1-(1-(2,2,2-trifluoroethyl)piperidin-4-yl)ethyl)-1H-indole-3-carboxamide]
Clint [1]: 159 μL/min/mg protein
microsomal CLint ([1]; mouse, liver microsomes): > 100 µL/min/mg
PPB [2]: 97.9 % bound
PPB [3]: 89.9 % bound
PPB ([4]; dog plasma): 90.3 % bound
fraction unbound ([4]; plasma, in vitro, dog, read-out: fu (fraction unbound to plasma protein)): 0.089
PPB [5]: 92.8 % bound
Cmax unbound (value in brackets) [6]: 593 nM
Cmax unbound (value in brackets) [7]: 120 nM
potency in mutated EZH2 C663S (versus EZH2) (EZH2 C663S): decreased
time-dependent inhibition (TDI) of cytochrome P450 enzymes [8]: no time-dependent inhibition
inhibition of any target of the panel [9]: ≤ 50%
DNMT1 IC50 (DNMT1): no inhibition or compound activity that could not be fit to an IC50 curve
DNMT3a IC50 (DNMT3a): no inhibition or compound activity that could not be fit to an IC50 curve
DNMT3b IC50 (DNMT3b): no inhibition or compound activity that could not be fit to an IC50 curve
DOT1L IC50 (DOT1L): no inhibition or compound activity that could not be fit to an IC50 curve
G9a IC50 (G9a): no inhibition or compound activity that could not be fit to an IC50 curve
GLP IC50 (GLP): no inhibition or compound activity that could not be fit to an IC50 curve
MLL1 IC50 (MLL1): no inhibition or compound activity that could not be fit to an IC50 curve
MLL2 IC50 (MLL2): no inhibition or compound activity that could not be fit to an IC50 curve
MLL3 IC50 (MLL3): no inhibition or compound activity that could not be fit to an IC50 curve
MLL4 IC50 (MLL4): no inhibition or compound activity that could not be fit to an IC50 curve
NSD1 IC50 (NSD1): no inhibition or compound activity that could not be fit to an IC50 curve
NSD2 IC50 (NSD2): no inhibition or compound activity that could not be fit to an IC50 curve
NSD2 (E1099K) IC50 (NSD2 (E1099K)): no inhibition or compound activity that could not be fit to an IC50 curve
PRDM9 IC50 (PRDM9): no inhibition or compound activity that could not be fit to an IC50 curve
PRMT1 IC50 (PRMT1): no inhibition or compound activity that could not be fit to an IC50 curve
PRMT3 IC50 (PRMT3): no inhibition or compound activity that could not be fit to an IC50 curve
PRMT4 IC50 (PRMT4): no inhibition or compound activity that could not be fit to an IC50 curve
PRMT5 IC50 (PRMT5): no inhibition or compound activity that could not be fit to an IC50 curve
PRMT8 IC50 (PRMT8): no inhibition or compound activity that could not be fit to an IC50 curve
SET1B IC50 (SET1B): no inhibition or compound activity that could not be fit to an IC50 curve
SET8 IC50 (SET8): no inhibition or compound activity that could not be fit to an IC50 curve
SETD2 IC50 (SETD2): no inhibition or compound activity that could not be fit to an IC50 curve
SMYD2 IC50 (SMYD2): no inhibition or compound activity that could not be fit to an IC50 curve
SUV39H1 IC50 (SUV39H1): no inhibition or compound activity that could not be fit to an IC50 curve
SUV39H2 IC50 (SUV39H2): no inhibition or compound activity that could not be fit to an IC50 curve
SUV420H1TV2 IC50 (SUV420H1TV2): no inhibition or compound activity that could not be fit to an IC50 curve
PRMT6 IC50 (PRMT6): no inhibition or compound activity that could not be fit to an IC50 curve
antitumor efficacy (in words) [10]: efficacious
antitumor efficacy (in words) ([10]; listed as CPI-1205): robust antitumor effects
time to observed tumor regression ([10]; 160 mg/kg po BID, female CB-17 SCID mice): ≤ 2 weeks

Source: PMC5451150 (Journal of Medicinal Chemistry, 2016)
